Data as given in patent publication US20240391931A1 (Bristol-Myers Squibb Company, priority 2021, published 2024).
Counter-ions that a name gives are not always drawn.

Key:
HER2VC (G776delinsVC) = biological target: T1, HER2VC (G776delinsVC) (Homo sapiens, UniProt P04626, G776C/INS775V); experiment: HER2 signaling (pHER2) in NCI-H1781 cells; type: cell-based; conditions: 1.5 hr compound, 1% FBS
T1 construct: NCI-H1781 cells which endogenously expresses a HER2 mutant protein; endogenous in cells; host or cells: NCI-H1781
Method: (§1) In addition to the engineered cell lines, the following cell lines were used: BT474 (human breast carcinoma), N87 (human gastric carcinoma), NCI-H1781 (human lung adenocarcinoma), and A431 (human epidermoid carcinoma); all cell lines were obtained from the American Type Culture Collection (ATCC, Manassas, VA). NCI-H1781 were grown in complete RPMI 1640 (Life Technologies, Carlsbad, CA) supplemented with 15% fetal bovine serum (FBS, Life Technologies, Carlsbad, CA) and 1% Penicillin-Streptomycin (P/S, Life Technologies, Carlsbad, CA). N87 cells were grown in complete RPMI 1640 supplemented with 10% FBS and 1% P/S. BT474 and A431 cells were grown in DMEM (Life Technologies, Carlsbad, CA) supplemented with 10% FBS and 1% P/S. All cells were maintained and propagated in a humidified 5% CO2 incubator at 37° C.
(§2) HER2 signaling was assessed in BT474 and N87 cell lines which endogenously overexpress the HER2 wildtype (WT) protein, in NCI-H1781 cells which endogenously expresses a HER2 mutant protein containing a VC insertion in the kinase domain (HER2VC or G776delinsVC), and in engineered cell lines transduced to express the Her2 mutant protein containing the YVMA insertion (Hek293-HER2YVMA and BEAS2B-HER2YVMA).
(§3) BT474, N87, and NCI-H1781 were plated in 96-well tissue-culture treated plates (Corning Costar, Sigma-Aldrich) in full media and incubated overnight. Hek293-HER2YVMA and BEAS2B-HER2YVMA cells were plated in 96-well poly-D-lysine treated plates (BD Bioscience, San Jose, CA). For treatment with test compounds, the media was replaced with corresponding low serum media (1% FBS) containing test compound at 1.1, 0.37, 0.12, 0.041, 0.014, 0.005, 0.0014, 0.0005 μM or DMSO control (0.1%). Cells were incubated with compound for 1.5 hr at 37° C. After compound treatment, the media was removed and cells were lysed for 30 min on ice in complete MSD lysis buffer (prepared using MSD base lysis buffer (Meso-Scale Discovery) supplemented with cOmplete, EDTA-free Protease inhibitor cocktail (Roche), Phosphatase Inhibitor Cocktails 2 and 3 (Sigma-Aldrich), and 1 mM PMSF (Sigma-Aldrich)). Lysates were stored at −70° C. until further analysis.
(§4) HER2 signaling was evaluated using phospho (Tyr1248)/total ErbB2 whole cell lysate MSD plates (Meso-Scale Discovery, Gaithersburg, MD). The phospho HER2 signal was normalized to total HER2 for each sample; results are reported as % DMSO control. The normalized data was fitted using a sigmoidal curve analysis program (Graph Pad Prism version 6) with variable Hill slope to determine EC50 values.
(§5) The HER2 signaling results are provided in Table 4, under columns titled “BT474-pHER2 EC50”, “N87-pHER2 EC50”, and “NCI-H1781-pHER2 EC50”. Hek293-HER2YVMA ins fall under the heading “HEKYVMA-pHER2 EC50”, Ba/F3 HER2YVMA fall under the heading “Ba/F3 YVMA-pHER2 EC50” and BEAS2B-HER2YVMA fall under the heading “BEAS2B YVMA-pHER2 EC50”.

N87 cells = experiment: Cellular proliferation in N87 cells (CellTiter Glo); type: cell-based, human; conditions: 72 h
Method: as §1
(§6) Cell proliferation in adherent cells was investigated in two HER2 amplified cell lines (BT474, N87), and a HER2VC expressing cell line (NCI-H1781). BT474, NCI-H1781, and N87 were plated in their appropriate growth media supplemented with either 10% FBS (BT474, N87) or 15% FBS (NCI-H1781) and 1% P/S in 96-well white clear-bottom tissue culture plates (Costar, Sigma-Aldrich). The starting cell densities were 3500, 5500, and 5000 cells for BT474, NCI-H1781, and N87 cells, respectively. An 8-point standard curve with varying cell densities (starting at 50000 cells and serially diluting down 2-fold) was prepared for each cell line and read 6 h after plating. Cells were allowed to attach overnight prior to compound treatment. Compound solutions were prepared by serially diluting test compounds in DMSO (Sigma-Aldrich), then diluting 500× in their corresponding serum free media. Cells were treated by adding a 1:1 volume of test compound to a final concentration of […], 0.004, 0.0014, or 0.0005 μM, in 0.1% DMSO and 5% FBS (for BT474 and N87) or 7.5% FBS (NCI-H1781). In BT474 and NCI-H1781, cell media was replaced and cells were redosed with fresh test compound solutions after 72 h. Viability was determined by CellTiter Glo (Promega, Madison, WI) after 72 h for N87 cells, and after 120 h for BT474 and […] cells. The results were converted to cell numbers using a standard curve; growth inhibition (GI50 values) were determined by Graph Pad Prism. […] The results are provided in Table 4, under columns titled “BT474-GI50”, “N87-GI50”, and “NCI-H1781-GI50”.

BT474 cells = experiment: Cellular proliferation in BT474 cells (CellTiter Glo); type: cell-based, human; conditions: 120 h, redosed after 72 h
Method: as §1, §6

[1] = biological target: T2, HER2 wildtype (WT) protein (Homo sapiens, UniProt P04626); experiment: HER2 signaling (pHER2 Tyr1248/total HER2 MSD) in N87 cells; type: cell-based; conditions: 1.5 hr compound, 1% FBS
T2 construct: BT474 and N87 cell lines which endogenously overexpress the HER2 wildtype (WT) protein; endogenous in cells; host or cells: BT474, N87
Method: as §1, §2, §3, §4, §5

NCI-H1781 cells = experiment: Cellular proliferation in NCI-H1781 cells (CellTiter Glo); type: cell-based, human; conditions: 120 h, redosed after 72 h
Method: as §1, §6

[2] = Homo sapiens, BT-474, BT474 cells
[3] = Homo sapiens, NCI-H1781, NCI-H1781 cells

T1 sequence (P04626 with tags, fused parts or gaps INS775V/G776C): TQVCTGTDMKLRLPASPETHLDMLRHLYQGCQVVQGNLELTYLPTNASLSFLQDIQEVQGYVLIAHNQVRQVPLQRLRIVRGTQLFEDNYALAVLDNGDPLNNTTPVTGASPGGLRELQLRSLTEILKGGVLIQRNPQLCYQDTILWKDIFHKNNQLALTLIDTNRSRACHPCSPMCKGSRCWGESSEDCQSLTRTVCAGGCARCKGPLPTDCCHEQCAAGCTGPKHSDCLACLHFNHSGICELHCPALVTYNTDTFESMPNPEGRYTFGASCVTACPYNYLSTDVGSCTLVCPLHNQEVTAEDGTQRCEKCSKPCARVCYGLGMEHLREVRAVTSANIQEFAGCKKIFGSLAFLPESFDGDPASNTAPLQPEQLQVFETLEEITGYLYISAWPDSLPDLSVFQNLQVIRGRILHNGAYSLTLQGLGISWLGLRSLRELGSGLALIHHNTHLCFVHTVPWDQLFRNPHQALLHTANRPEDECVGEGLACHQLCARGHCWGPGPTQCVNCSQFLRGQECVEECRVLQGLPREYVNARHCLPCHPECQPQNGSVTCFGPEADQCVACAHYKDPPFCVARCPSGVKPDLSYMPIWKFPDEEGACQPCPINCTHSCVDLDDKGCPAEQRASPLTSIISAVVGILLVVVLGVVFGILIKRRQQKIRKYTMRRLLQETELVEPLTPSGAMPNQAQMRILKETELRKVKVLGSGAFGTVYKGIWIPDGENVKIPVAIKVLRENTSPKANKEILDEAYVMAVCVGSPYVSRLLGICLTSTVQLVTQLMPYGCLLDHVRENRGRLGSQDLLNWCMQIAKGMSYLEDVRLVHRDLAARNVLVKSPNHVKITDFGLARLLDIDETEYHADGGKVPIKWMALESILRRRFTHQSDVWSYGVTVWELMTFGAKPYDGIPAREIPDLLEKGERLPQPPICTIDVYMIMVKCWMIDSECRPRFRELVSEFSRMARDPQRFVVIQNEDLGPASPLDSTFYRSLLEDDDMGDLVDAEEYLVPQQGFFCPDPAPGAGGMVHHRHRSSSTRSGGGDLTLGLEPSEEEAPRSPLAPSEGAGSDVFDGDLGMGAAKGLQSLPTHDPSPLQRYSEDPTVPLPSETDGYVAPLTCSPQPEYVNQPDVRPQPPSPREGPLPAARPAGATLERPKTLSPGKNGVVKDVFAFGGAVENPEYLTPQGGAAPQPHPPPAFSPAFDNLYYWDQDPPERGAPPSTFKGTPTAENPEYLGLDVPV
T2 sequence (P04626 23-1255): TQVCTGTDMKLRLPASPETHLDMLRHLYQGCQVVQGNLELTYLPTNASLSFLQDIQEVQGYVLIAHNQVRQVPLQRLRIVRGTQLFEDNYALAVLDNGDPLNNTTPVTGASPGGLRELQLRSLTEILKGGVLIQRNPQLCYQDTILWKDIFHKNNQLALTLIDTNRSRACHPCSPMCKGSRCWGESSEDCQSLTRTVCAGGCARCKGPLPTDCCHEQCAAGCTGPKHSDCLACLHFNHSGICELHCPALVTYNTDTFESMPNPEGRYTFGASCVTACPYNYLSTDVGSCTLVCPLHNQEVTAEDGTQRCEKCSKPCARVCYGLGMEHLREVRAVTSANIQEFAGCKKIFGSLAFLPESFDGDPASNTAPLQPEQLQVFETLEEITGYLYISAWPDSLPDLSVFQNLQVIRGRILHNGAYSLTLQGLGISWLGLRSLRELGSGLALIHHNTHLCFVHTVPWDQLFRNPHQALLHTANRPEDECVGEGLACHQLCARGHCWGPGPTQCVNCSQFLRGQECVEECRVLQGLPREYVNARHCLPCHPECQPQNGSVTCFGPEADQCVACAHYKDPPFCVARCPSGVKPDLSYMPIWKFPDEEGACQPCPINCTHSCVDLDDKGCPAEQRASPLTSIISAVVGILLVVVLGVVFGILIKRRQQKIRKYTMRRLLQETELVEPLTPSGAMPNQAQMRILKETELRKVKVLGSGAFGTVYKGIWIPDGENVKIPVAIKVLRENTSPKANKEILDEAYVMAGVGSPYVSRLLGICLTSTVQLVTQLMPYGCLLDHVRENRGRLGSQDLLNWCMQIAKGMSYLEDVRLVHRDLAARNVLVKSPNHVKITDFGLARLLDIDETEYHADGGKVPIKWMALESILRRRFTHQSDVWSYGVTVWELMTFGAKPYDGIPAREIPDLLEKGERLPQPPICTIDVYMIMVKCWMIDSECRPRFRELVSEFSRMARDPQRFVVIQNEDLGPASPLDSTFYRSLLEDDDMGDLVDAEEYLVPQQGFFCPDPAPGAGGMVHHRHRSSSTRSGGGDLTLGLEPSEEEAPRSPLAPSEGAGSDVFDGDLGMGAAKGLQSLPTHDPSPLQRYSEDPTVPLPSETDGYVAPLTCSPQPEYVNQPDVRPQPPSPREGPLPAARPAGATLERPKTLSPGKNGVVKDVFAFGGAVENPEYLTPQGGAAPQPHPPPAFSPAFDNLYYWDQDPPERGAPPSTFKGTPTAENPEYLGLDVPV

Cc1ccc(Oc2ccc(Nc3ncnc4sc5c(c34)C(C)N(C(=O)C=CCN(C)C)C5)cc2C)cn1 (single isomer, unassigned) [Compound 147]
< 100 nM: EC50 (HER2VC (G776delinsVC)) | GI50 (N87 cells; Homo sapiens) | GI50 (BT474 cells; [2]) | EC50 [1] | GI50 (NCI-H1781 cells; [3])

COc1ccc(Oc2ccc(Nc3ncnc4sc5c(c34)C(C)CN(C(=O)C=CCN(C)C)C5)cc2C)cn1 (single isomer, unassigned) [Compound 159]
< 100 nM: GI50 (N87 cells; Homo sapiens) | GI50 (BT474 cells; [2]) | EC50 [1]
100 to 350 nM: EC50 (HER2VC (G776delinsVC)) | GI50 (NCI-H1781 cells; [3])

COc1ccc(Oc2ccc(Nc3ncnc4sc5c(c34)C(C)CN(C(=O)C=CCN(C)C)C5)cc2C)cn1 (single isomer, unassigned) [Compound 160]
< 100 nM: EC50 (HER2VC (G776delinsVC)) | GI50 (N87 cells) | GI50 (BT474 cells; BT474 cells) | EC50 [1] | GI50 (NCI-H1781 cells; NCI-H1781 cells)

Cc1ccc(Oc2ccc(Nc3ncnc4sc5c(c34)CN(C(=O)C=CCN(C)C)C5C)cc2C)cn1 (single isomer, unassigned) [Compound 169]
< 100 nM: EC50 (HER2VC (G776delinsVC)) | GI50 (N87 cells; Homo sapiens) | GI50 (BT474 cells; [2]) | EC50 [1] | GI50 (NCI-H1781 cells; NCI-H1781 cells)

Cc1ccc(Oc2ccc(Nc3ncnc4sc5c(c34)C(C)CN(C(=O)C=CCN3CCOCC3)C5)cc2C)cn1 (single isomer, unassigned) [Compound 177]
< 100 nM: EC50 (HER2VC (G776delinsVC)) | EC50 [1]

Cc1ccc(Oc2ccc(Nc3ncnc4sc5c(c34)CCN(C(=O)/C=C/CN(C)C)C5)cc2C)cn1 [Compound 8, (E)-4-(Dimethylamino)-1-(4-((3-methyl-4-((6-methylpyridin-3-yl)oxy)phenyl)amino)-5,6-dihydropyrido[4′,3′:4,5]thieno[2,3-d]pyrimidin-7(8H)-yl)but-2-en-1-one]
< 100 nM: EC50 (HER2VC (G776delinsVC)) | GI50 (N87 cells; Homo sapiens) | GI50 (BT474 cells; [2]) | EC50 [1] | GI50 (NCI-H1781 cells; Homo sapiens, NCI-H1781 cells)

Cc1ccc(Oc2ccc(Nc3ncnc4sc5c(c34)CCN(C(=O)/C=C/CN3CC4CC(C3)O4)C5)cc2C)cn1 [Compound 15]
< 100 nM: EC50 [1]

Cc1ccc(Oc2ccc(Nc3ncnc4sc5c(c34)CCN(C(=O)/C=C/CN3CC4CCC(C4)C3)C5)cc2C)cn1 [Compound 16, (E)-4-(3-azabicyclo[3.2.1]octan-3-yl)-1-(4-((3-methyl-4-((6-methylpyridin-3-yl)oxy)phenyl)amino)-5,8-dihydropyrido[4′,3′:4,5]thieno[2,3-d]pyrimidin-7(6H)-yl)but-2-en-1-one benzenesulfonate salt]
< 100 nM: EC50 [1]

Cc1ccc(Oc2ccc(Nc3ncnc4sc5c(c34)CCN(C(=O)/C=C/CN3CCOCC3)C5)cc2C)cn1 [Compound 17, (E)-1-(4-((3-Methyl-4-((6-methylpyridin-3-yl)oxy)phenyl)amino)-5,6-dihydropyrido[4′,3′:4,5]thieno[2,3-d]pyrimidin-7(8H)-yl)-4-morpholinobut-2-en-1-one]
< 100 nM: EC50 (HER2VC (G776delinsVC)) | GI50 (N87 cells; Homo sapiens) | GI50 (BT474 cells; [2]) | EC50 [1] | GI50 (NCI-H1781 cells; [3])

COc1ccc(Oc2ccc(Nc3ncnc4sc5c(c34)CN(C(=O)/C=C/CN(C)C)C5)cc2C)cn1 [Compound 128, (E)-4-(dimethylamino)-1-(4-((4-((6-methoxypyridin-3-yl)oxy)-3-methylphenyl)amino)-5,7-dihydro-6H-pyrrolo[3′,4′:4,5]thieno[2,3-d]pyrimidin-6-yl)but-2-en-1-one]
100 to 350 nM: EC50 (HER2VC (G776delinsVC))
< 100 nM: GI50 (N87 cells; Homo sapiens) | GI50 (BT474 cells; [2]) | EC50 [1] | GI50 (NCI-H1781 cells; [3])

Cc1ccc(Oc2ccc(Nc3ncnc4sc5c(c34)CN(C(=O)/C=C/CN(C)C)C5)cc2Cl)cn1 [Compound 129, (E)-1-(4-((3-Chloro-4-((6-methylpyridin-3-yl)oxy)phenyl)amino)-5H-pyrrolo[3′,4′:4,5]thieno[2,3-d]pyrimidin-6(7H)-yl)-4-(dimethylamino)but-2-en-1-one]
< 100 nM: EC50 (HER2VC (G776delinsVC)) | GI50 (N87 cells; Homo sapiens) | GI50 (BT474 cells; [2]) | EC50 [1] | GI50 (NCI-H1781 cells; [3])
